Results on 26 compounds are retold here after patent EP4553080A1, “NUCLEOSIDE DERIVATIVES AS ANTIVIRAL AGENTS AGAINST CORONAVIRUSES” (Ustav Organicke Chemie a Biochemie AV CR, v.v.i., priority 2023, dated 2025).

This assay has as its target nsp14 methyltransferase from SARS-CoV-2 (Severe acute respiratory syndrome coronavirus 2, UniProt P0DTD1). Put plainly: Nsp14 MTase activity inhibition in vitro (EchoMS assay). The class given is biochemical.
Setting [1] is: recombinant nsp14 protein expressed in E. coli, dose-response curve.

Broadly, the pIC50 is the negative decadic logarithm of the IC50, by convention in mol/L.

Molecules are shown by their SMILES. pIC50: −log10 of the molar value. Read-outs that look alike come from different tables or passages of the source.

For `Cc1cncc(-c2ccccc2)c1CSC[C@H]1O[C@@H](n2ccc3c(N)ncnc32)[C@H](O)[C@@H]1O` [Compound 57c, (2R,3R,4S,5S)-2-(4-Amino-7H-pyrrolo[2,3-d]pyrimidin-7-yl)-5-((((3-methyl-5-phenylpyridin-4-yl)methyl)thio)methyl)tetrahydrofuran-3,4-diol], the pIC50 under setting [1] was 7.00 to 7.52.

Take `Cc1cccc(-c2ccccc2)c1CSC[C@H]1O[C@@H](n2ccc3c(N)ncnc32)[C@H](O)[C@@H]1O` [Compound 58c, (2R,3R,4S,5S)-2-(4-Amino-7H-pyrrolo[2,3-d]pyrimidin-7-yl)-5-((((3-methyl-[1,1'-biphenyl]-2-yl)methyl)thio)methyl)tetrahydrofuran-3,4-diol]: the pIC50 under setting [1] was 5.70 to 6.30.

As to `Cc1snc(-c2ccccc2)c1CSC[C@H]1O[C@@H](n2ccc3c(N)ncnc32)[C@H](O)[C@@H]1O` [Compound 59c, (2R,3R,4S,5S)-2-(4-Amino-7H-pyrrolo[2,3-d]pyrimidin-7-yl)-5-((((5-methyl-3-phenylisothiazol-4-yl)methyl)thio)methyl)tetrahydrofuran-3,4-diol], the pIC50 under setting [1] is 7.00 to 7.52.

`Cn1ncc(-c2ccccc2)c1CSC[C@H]1O[C@@H](n2ccc3c(N)ncnc32)[C@H](O)[C@@H]1O` [Compound 60c, (2R,3R,4S,5S)-2-(4-Amino-7H-pyrrolo[2,3-d]pyrimidin-7-yl)-5-((((1-methyl-4-phenyl-1H-pyrazol-5-yl)methyl)thio)methyl)tetrahydrofuran-3,4-diol]: the pIC50 under setting [1] is 7.00 to 7.52.

As for `Cc1ncn(-c2ccccc2)c1CSC[C@H]1O[C@@H](n2ccc3c(N)ncnc32)[C@H](O)[C@@H]1O` [Compound 61c, (2R,3R,4S,5S)-2-(4-Amino-7H-pyrrolo[2,3-d]pyrimidin-7-yl)-5-((((4-methyl-1-phenyl-1H-imidazol-5-yl)methyl)thio)methyl)tetrahydrofuran-3,4-diol], the pIC50 under setting [1] was 6.30 to 7.00.

On to `Cc1ccnc(-c2ccccc2)c1CSC[C@H]1O[C@@H](n2ccc3c(N)ncnc32)[C@H](O)[C@@H]1O` [Compound 62c, (2R,3R,4S,5S)-2-(4-Amino-7H-pyrrolo[2,3-d]pyrimidin-7-yl)-5-((((4-methyl-2-phenylpyridin-3-yl)methyl)thio)methyl)tetrahydrofuran-3,4-diol], for which the pIC50 under setting [1] was 5.70 to 6.30.

For the compound `Cc1noc(-c2ccc([N+](=O)[O-])cc2)c1CSC[C@H]1O[C@@H](n2ccc3c(N)ncnc32)[C@H](O)[C@@H]1O` [Compound 93c, (2R,3R,4S,5S)-2-(4-Amino-7H-pyrrolo[2,3-d]pyrimidin-7-yl)-5-((((3-methyl-5-(4-nitrophenyl)isoxazol-4-yl)methyl)thio)methyl)tetrahydrofuran-3,4-diol], the pIC50 under setting [1] is 6.30 to 7.00.

For `COc1ccc(-c2onc(C)c2CSC[C@H]2O[C@@H](n3ccc4c(N)ncnc43)[C@H](O)[C@@H]2O)cc1` [Compound 94c, (2R,3R,4S,5S)-2-(4-Amino-7H-pyrrolo[2,3-d]pyrimidin-7-yl)-5-((((5-(4-methoxyphenyl)-3-methylisoxazol-4-yl)methyl)thio)methyl)tetrahydrofuran-3,4-diol], the pIC50 under setting [1] was 7.52 to 8.00.

For the compound `Cc1ccc(-c2onc(C)c2CSC[C@H]2O[C@@H](n3ccc4c(N)ncnc43)[C@H](O)[C@@H]2O)cc1C` [Compound 95c, (2R,3R,4S,5S)-2-(4-Amino-7H-pyrrolo[2,3-d]pyrimidin-7-yl)-5-((((5-(3,4-dimethylphenyl)-3-methylisoxazol-4-yl)methyl)thio)methyl)tetrahydrofuran-3,4-diol], under setting [1], the pIC50 is 7.52 to 8.00.

As for `Cc1noc(-c2ccc3c(c2)OCO3)c1CSC[C@H]1O[C@@H](n2ccc3c(N)ncnc32)[C@H](O)[C@@H]1O` [Compound 96c, (2R,3R,4S,5S)-2-(4-Amino-7H-pyrrolo[2,3-d]pyrimidin-7-yl)-5-((((5-(benzo[d][1,3]dioxol-5-yl)-3-methylisoxazol-4-yl)methyl)thio)methyl)tetrahydrofuran-3,4-diol], the pIC50 under setting [1] is 7.52 to 8.00.

On to `Cc1noc(-c2ccc(F)cc2)c1CSC[C@H]1O[C@@H](n2ccc3c(N)ncnc32)[C@H](O)[C@@H]1O` [Compound 97c, (2R,3R,4S,5S)-2-(4-Amino-7H-pyrrolo[2,3-d]pyrimidin-7-yl)-5-((((5-(4-fluorophenyl)-3-methylisoxazol-4-yl)methyl)thio)methyl)tetrahydrofuran-3,4-diol], for which the pIC50 under setting [1] is 6.30 to 7.00.

With `Cc1noc(C2CCCCC2)c1CSC[C@H]1O[C@@H](n2ccc3c(N)ncnc32)[C@H](O)[C@@H]1O` [Compound 98c, (2R,3R,4S,5S)-2-(4-Amino-7H-pyrrolo[2,3-d]pyrimidin-7-yl)-5-((((5-cyclohexyl-3-methylisoxazol-4-yl)methyl)thio)methyl)tetrahydrofuran-3,4-diol], the pIC50 under setting [1] is 5.70 to 6.30.

With `Cc1noc(Cc2ccccc2)c1CSC[C@H]1O[C@@H](n2ccc3c(N)ncnc32)[C@H](O)[C@@H]1O` [Compound 99c, (2R,3R,4S,5S)-2-(4-Amino-7H-pyrrolo[2,3-d]pyrimidin-7H-yl)-5-((((5-benzyl-3-methylisoxazol-4-yl)methyl)thio)methyl)tetrahydrofuran-3,4-diol], the pIC50 was 5.30 to 5.70.

With `Cc1noc(-c2cccc3ccccc23)c1CSC[C@H]1O[C@@H](n2ccc3c(N)ncnc32)[C@H](O)[C@@H]1O` [Compound 100c, (2R,3R,4S,5S)-2-(4-Amino-7H-pyrrolo[2,3-d]pyrimidin-7-yl)-5-((((3-methyl-5-(naphthalen-1-yl)isoxazol-4-yl)methyl)thio)methyl)tetrahydrofuran-3,4-diol], the pIC50 under setting [1] is 7.52 to 8.00.

Take `Cc1noc(-c2cscn2)c1CSC[C@H]1O[C@@H](n2ccc3c(N)ncnc32)[C@H](O)[C@@H]1O` [Compound 101c, (2R,3R,4S,5S)-2-(4-Amino-7H-pyrrolo[2,3-d]pyrimidin-7-y1)-5-((((3-methyl-5-(thiazol-4-y1)isoxazo1-4-yl)methyl)thio)methyl)tetrahydrofuran-3,4-diol]: the negative-log IC50 (pIC50) under setting [1] was 7.00 to 7.52.

Turning to `Cc1ncnc(-c2ccc3c(c2)OCO3)c1CSC[C@H]1O[C@@H](n2ccc3c(N)ncnc32)[C@H](O)[C@@H]1O` [Compound 102c, (2R,3R,4S,5S)-2-(4-Amino-7H-pyrrolo[2,3-d]pyrimidin-7-yl)-5-((((4-(benzo[d][1,3]dioxol-5-yl)-6-methylpyrimidin-5-yl)methyl)thio)methyl)tetrahydrofuran-3,4-diol], the pIC50 under setting [1] is 7.00 to 7.52.

Take `Nc1ncnc2c1ccn2[C@@H]1O[C@H](CSCc2cnsc2-c2ccccc2)[C@@H](O)[C@H]1O` [Compound 103c, (2R,3R,4S,5S)-2-(4-Amino-7H-pyrrolo[2,3-d]pyrimidin-7-yl)-5-((((5-phenylisothlazol-4-yl)methyl)thio)methyl)tetrahydrofuran-3,4-diol]: the pIC50 under setting [1] was 5.70 to 6.30.

Take `Nc1ncnc2c1ccn2[C@@H]1O[C@H](CSCc2[nH]cnc2-c2ccccc2)[C@@H](O)[C@H]1O` [Compound 104c, (2R,3R,4S,5S)-2-(4-Amino-7H-pyrrolo[2,3-d]pyrimidin-7-yl)-5-((((4-phenyl-1H-imidazol-5-yl)methyl)thio)methyl)tetrahydrofuran-3,4-diol]: the pIC50 under setting [1] was 5.70 to 6.30.

On to `Nc1ncnc2c1ccn2[C@@H]1O[C@H](CSCc2csnc2-c2ccccc2)[C@@H](O)[C@H]1O` [Compound 105c, (2R,3R,4S,5S)-2-(4-Amino-7H-pyrrolo[2,3-d]pyrimidin-7-yl)-5-((((3-phenylisothiazol-4-yl)methyl)thio)methyl)tetrahydrofuran-3,4-diol], for which the pIC50 under setting [1] was 5.70 to 6.30.

For the compound `CCc1onc(-c2ccccc2)c1CSC[C@H]1O[C@@H](n2ccc3c(N)ncnc32)[C@H](O)[C@@H]1O` [Compound 106c, (2R,3R,4S,5S)-2-(4-Amino-7H-pyrrolo[2,3-d]pyrimidin-7-yl)-5-((((5-ethyl-3-phenyllsoxazol-4-yl)methyl)thio)methyl)tetrahydrofuran-3,4-diol], under setting [1], the pIC50 was 6.30 to 7.00.

As for `CC(C)c1onc(-c2ccccc2)c1CSC[C@H]1O[C@@H](n2ccc3c(N)ncnc32)[C@H](O)[C@@H]1O` [Compound 107c, (2R,3R,4S,5S)-2-(4-Amino-7H-pyrrolo[2,3-d]pyrimidin-7-yl)-5-((((5-isopropyl-3-phenylisoxazol-4-yl)methyl)thio)methyl)tetrahydrofuran-3,4-diol], the pIC50 under setting [1] was 5.70 to 6.30.

As for `Nc1ncnc2c1ccn2[C@@H]1O[C@H](CSCc2c(-c3ccccc3)noc2C2CC2)[C@@H](O)[C@H]1O` [Compound 108c, (2R,3R,4S,5S)-2-(4-Amino-7H-pyrrolo[2,3-d]pyrimidin-7-yl)-5-((((5-cyclopropyl-3-phenylisoxazol-4-yl)methyl)thio)methyl)tetrahydrofuran-3,4-diol], the pIC50 under setting [1] is 6.30 to 7.00.

Turning to `Nc1ncnc2c1ccn2[C@@H]1O[C@H](CSCc2c(-c3ccccc3)noc2-c2ccccc2)[C@@H](O)[C@H]1O` [Compound 109c, (2R,3R,4S,5S)-2-(4-Amino-7H-pyrrolo[2,3-d]pyrimidin-7-yl)-5-((((3,5-diphenylisoxazol-4-yl)methyl)thio)methyl)tetrahydrofuran-3,4-diol], the negative-log IC50 (pIC50) under setting [1] is 6.30 to 7.00.

As to `COc1ncnc(-c2ccccc2)c1CSC[C@H]1O[C@@H](n2ccc3c(N)ncnc32)[C@H](O)[C@@H]1O` [Compound 110c, (2R,3R,4S,5S)-2-(4-Amino-7H-pyrrolo[2,3-d]pyrimidin-7-yl)-5-((((4-methoxy-6-phenylpyrimidin-5-yl)methyl)thio)methyl)tetrahydrofuran-3,4-diol], under setting [1], the pIC50 is 5.70 to 6.30.

As to `Cc1noc(-c2ccc(N)cc2)c1CSC[C@H]1O[C@@H](n2ccc3c(N)ncnc32)[C@H](O)[C@@H]1O` [Compound 111, (2R,3R,4S,5S)-2-(4-Amino-7H-pyrrolo[2,3-d]pyrimidin-7-yl)-5-((((5-(4-aminophenyl)-3-methylisoxazol-4-yl)methyl)thio)methyl)tetrahydrofuran-3,4-diol], the pIC50 under setting [1] is 7.00 to 7.52.

Turning to `COc1ccc(-c2nc(C)c(CSC[C@H]3O[C@@H](n4ccc5c(N)ncnc54)[C@H](O)[C@@H]3O)c(-c3ccccc3)n2)cc1OC` [Compound 119c, (2R,3R,4S,5S)-2-(4-Amino-7H-pyrrolo[2,3-d]pyrimidin-7-yl)-5-((((2-(3,4-dimethoxyphenyl)-4-methyl-6-phenylpyrimidin-5-yl)methyl)thio)methyl)tetrahydrofuran-3,4-diol], the pIC50 under setting [1] is 7.00 to 7.52.
